# Measured values as given in patent publication US10745360B2, “Quinoxaline compounds, method for preparing the same and use thereof” (Development Center for Biotechnology, priority 2014, dated 2020).
# Where two headings read alike, the source gives them in different places.
# Tests used:
# [1] = system: SK-MEL-2 melanoma cell with wild type B-Raf (B-Raf^wt) and NRAS^Q61R mutation; assay: Cell proliferation assay (CELLTITER 96), SK-MEL-2; format: cell-based; details: Homo sapiens, SK-MEL-2, 72 hours, read-out: Cytotoxicity (IC50 Ranking) SK-MEL-2 (NRAS^Q61R, B-Raf^wt)
# Experimental: (§1) Inhibition of cell growth by compounds was measured using CELLTITER 96® assay. The cytotoxicity of compounds was evaluated in B-Raf^V600E mutant A375 melanoma cell, B-Raf^V600E mutant COLO205 colon cancer cell, and SK-MEL-2 melanoma cell with wild type B-Raf (B-Raf^wt) and NRASQ^Q61R mutation. A375 and COLO205 cell line were cultured in DMEM containing 10% FCS and incubated at 37° C. in 5% CO2 atmosphere. SK-MEL-2 cell line was cultured in MEM containing 10% FCS and incubated at 37° C. in 5% CO2 atmosphere. A375, COLO205 and SK-MEL-2 cell were seeded into 96-well plates at 2000, 2000, and 4000 cells/well, respectively, and allowed to adhere for overnight. Then, these seeded cells were treated with increasing concentrations of the test compounds and incubated for another 72 hours. At the end of the incubation, CELLTITER 96® Aqueous One Solution Reagent (Promega) was added and incubated for 4 hours. Cell viability was determined by measuring absorbance at 490 nm using EMAX® microplate reader (Molecular Devices).
# (§2) The 50% inhibitory concentration (IC50) value was calculated by plotting the percentage of growth inhibition against the concentration of compound, using GraphPad Prism5 software for curve fitting.
# B-Raf^V600E kinase = target: T1, B-Raf^V600E kinase (Homo sapiens, UniProt P15056, V600E); assay: B-Raf V600E kinase assay ([33P] incorporation into MEK1 K97R); format: biochemical; details: recombinant B-Raf^V600E, 8 μM ATP, 30 min, 30° C.; read-out: IC50 ranking against B-Raf^V600E kinase
# T1 construct: purchased Upstate Biotechnology
# Experimental: (§3) Inhibition of kinase activity by a test compound disclosed herein was estimated by quantifying the amount of [^33P] incorporation of a substrate in the presence of the test compound. Standard assay conditions were 5 ng of recombinant B-Raf^V600E kinase (Upstate Biotechnology) with 500 ng MEK1 (K97R) in assay buffer (8 μM ATP, 0.5 μCi [^33P]ATP (specific activity 3000 Ci/mmol, PerkinElmer), 50 mM Tris/HCl (pH 7.5), and 1 mM EGTA, 1 mM Na3VO4, 1% 2-mercaptoethanol, 0.1% Brij 35, and 0.2 mg/ml BSA), and the test compound (diluted with 4% DMSO) or DMSO alone (as a control) in a final volume of 25 μL. Reactions were incubated at 30° C. for 30 min and stopped by adding 3% phosphoric acid, harvested onto a 96-well GF/B UniFilter (PerkinElmer) using a unifilter harvester (PerkinElmer), and counted with a TopCount microplate scintillation counter (PerkinElmer). The IC50 values of inhibitors were determined after carrying out assays at 3-fold serially diluted concentrations of each compound in duplication. The results were analyzed using linear regression software (GraphPad Prism 4; GraphPad Software Inc.).
# [2] = system: B-Raf^V600E mutant COLO205 colon cancer cell; assay: Cell proliferation assay (CELLTITER 96), COLO205; format: cell-based; details: Homo sapiens, COLO 205; COLO205, 72 hours; read-out: Cytotoxicity (IC50 Ranking) COLO205 (B-Raf^V600E)
# Experimental: as §1, §2
# C-Raf kinase = target: T2, C-Raf kinase (Homo sapiens, UniProt P04049); assay: C-Raf kinase assay ([33P] incorporation into MEK1 K97R); format: biochemical; details: recombinant C-Raf, 8 μM ATP, 30 min, 30° C.; read-out: IC50 ranking against C-Raf kinase
# T2 construct: purchased Upstate Biotechnology
# Experimental: as §3, with “were 2” for “were 5”, “recombinant C-Raf” for “recombinant B-Raf^V600E”, “ng MEK1(K97R)” for “ng MEK1 (K97R)”
# [3] = system: B-Raf^V600E mutant A375 melanoma cell; assay: Cell proliferation assay (CELLTITER 96), A375; format: cell-based; details: Homo sapiens, A-375; A375, 72 hours; read-out: Cytotoxicity (IC50 Ranking) A375 (B-Raf^V600E)
# Experimental: as §1, §2
# B-Raf kinase = target: T3, B-Raf kinase (Homo sapiens, UniProt P15056); assay: B-Raf kinase assay ([33P] incorporation into MEK1 K97R); format: biochemical; details: recombinant B-Raf, 8 μM ATP, 30 min, 30° C.; read-out: IC50 ranking against B-Raf kinase
# T3 construct: purchased Upstate Biotechnology
# Experimental: Inhibition of kinase activity by a test compound disclosed herein was estimated by quantifying the amount of [^33P] incorporation of a substrate in the presence of the test compound. Standard assay conditions were 5 ng of recombinant B-Raf kinase (Upstate Biotechnology) with 500 ng MEK1(Map-erk kinase; K97R) in the assay buffer (8 μM ATP, 0.5 μCi [^33P]ATP (specific activity 3000 Ci/mmol, PerkinElmer), 50 mM Tris/HCl (pH 7.5), and 1 mM EGTA, 1 mM Na3VO4, 1% 2-mercaptoethanol, 0.1% Brij 35, and 0.2 mg/ml BSA) in a final volume of 25 μL. Reactions were incubated at 30° C. for 30 min and stopped by adding 3% phosphoric acid, harvested onto a 96-well GF/B UniFilter (PerkinElmer) using a unifilter harvester (PerkinElmer), and counted with a TopCount microplate scintillation counter (PerkinElmer). The IC50 values of inhibitors were determined after carrying out assays at 3-fold serially diluted concentrations of each compound in duplication. The results were analyzed using linear regression software (GraphPad Prism 4; GraphPad Software Inc.).
# T1 sequence (P15056 whole entry V600E): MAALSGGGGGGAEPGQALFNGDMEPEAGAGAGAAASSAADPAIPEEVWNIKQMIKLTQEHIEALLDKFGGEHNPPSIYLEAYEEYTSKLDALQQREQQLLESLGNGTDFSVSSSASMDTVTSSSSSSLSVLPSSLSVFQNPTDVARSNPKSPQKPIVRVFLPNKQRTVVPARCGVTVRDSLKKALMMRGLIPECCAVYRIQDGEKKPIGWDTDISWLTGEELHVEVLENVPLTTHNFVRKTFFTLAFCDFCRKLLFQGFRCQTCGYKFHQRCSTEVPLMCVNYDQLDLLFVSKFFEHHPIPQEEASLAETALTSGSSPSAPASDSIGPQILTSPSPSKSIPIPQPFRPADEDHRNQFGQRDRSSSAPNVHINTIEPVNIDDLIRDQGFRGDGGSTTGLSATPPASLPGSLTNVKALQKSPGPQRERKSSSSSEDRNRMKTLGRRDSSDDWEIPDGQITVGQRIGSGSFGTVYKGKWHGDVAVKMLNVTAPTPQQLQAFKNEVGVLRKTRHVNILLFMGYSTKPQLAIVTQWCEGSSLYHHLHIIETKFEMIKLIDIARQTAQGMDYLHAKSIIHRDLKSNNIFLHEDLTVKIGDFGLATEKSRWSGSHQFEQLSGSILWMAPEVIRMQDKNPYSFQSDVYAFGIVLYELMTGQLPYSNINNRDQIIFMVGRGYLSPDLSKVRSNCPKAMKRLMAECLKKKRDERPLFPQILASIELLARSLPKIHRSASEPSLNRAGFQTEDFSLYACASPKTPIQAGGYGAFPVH
# T3 sequence (P15056 whole entry): as the sequence (P15056 whole entry V600E) above, with E600V counted along it
# T2 sequence (P04049 whole entry): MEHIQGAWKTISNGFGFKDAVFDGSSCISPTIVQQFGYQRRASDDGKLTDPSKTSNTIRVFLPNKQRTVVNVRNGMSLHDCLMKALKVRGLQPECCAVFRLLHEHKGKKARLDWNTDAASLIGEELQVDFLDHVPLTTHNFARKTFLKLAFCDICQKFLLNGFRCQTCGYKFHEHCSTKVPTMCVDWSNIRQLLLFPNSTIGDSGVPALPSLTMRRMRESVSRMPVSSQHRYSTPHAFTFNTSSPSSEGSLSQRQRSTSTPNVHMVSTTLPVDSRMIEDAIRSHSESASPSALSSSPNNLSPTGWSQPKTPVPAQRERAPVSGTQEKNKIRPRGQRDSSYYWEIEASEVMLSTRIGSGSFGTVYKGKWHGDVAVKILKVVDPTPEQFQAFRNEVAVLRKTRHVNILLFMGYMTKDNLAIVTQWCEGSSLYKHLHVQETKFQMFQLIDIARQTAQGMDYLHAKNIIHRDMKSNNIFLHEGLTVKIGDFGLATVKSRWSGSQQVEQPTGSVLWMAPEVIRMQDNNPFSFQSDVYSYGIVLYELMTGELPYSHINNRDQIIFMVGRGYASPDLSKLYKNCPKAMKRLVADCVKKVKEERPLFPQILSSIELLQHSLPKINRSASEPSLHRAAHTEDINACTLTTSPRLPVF
SMILES,IC50 (B-Raf^V600E kinase),IC50 (C-Raf kinase),IC50 (B-Raf kinase),IC50 ([1]; given as bound),IC50 [2],IC50 [3],IC50 ([1]; given as class symbol)
"N#Cc1c(Nc2c(F)ccc(NS(=O)(=O)CCCF)c2F)ccc2ncc(N3CCOCC3)nc12 [compound 33, N-(3-(5-cyano-3-morpholinoquinoxalin-6-ylamino)-2,4-difluorophenyl)-3-fluoropropane-1-sulfonamide]",< 0.3 µM,< 0.3 µM,< 0.3 µM,,< 0.3 µM,< 0.3 µM,1 to 10 µM
"COc1cnc2ccc(Nc3cc(NS(=O)(=O)c4ccccc4)ccc3F)c(C#N)c2n1 [compound 35, N-(3-(5-cyano-3-methoxyquinoxalin-6-ylamino)-4-fluorophenyl)benzenesulfonamide]",< 0.3 µM,< 0.3 µM,< 0.3 µM,> 10 µM,< 0.3 µM,< 0.3 µM,
"CCCS(=O)(=O)Nc1ccc(F)c(Nc2ccc3ncc(OCC)nc3c2C#N)c1 [compound 36, N-(3-(5-cyano-3-ethoxyquinoxalin-6-ylamino)-4-fluorophenyl)propane-1-sulfonamide]",< 0.3 µM,< 0.3 µM,< 0.3 µM,> 10 µM,< 0.3 µM,< 0.3 µM,
"CN(C)c1cnc2ccc(Nc3cc(NS(=O)(=O)c4ccccc4)ccc3F)c(C#N)c2n1 [compound 37, N-(3-(5-cyano-3-(dimethylamino)quinoxalin-6-ylamino)-4-fluorophenyl)benzenesulfonamide]",< 0.3 µM,< 0.3 µM,< 0.3 µM,> 10 µM,1 to 10 µM,1 to 10 µM,
"CCCS(=O)(=O)Nc1cccc(Nc2ccc3ncc(N4CCOCC4)nc3c2C#N)c1C [compound 38, N-(3-(5-cyano-3-morpholinoquinoxalin-6-ylamino)-2-methylphenyl)propane-1-sulfonamide]",< 0.3 µM,< 0.3 µM,< 0.3 µM,> 10 µM,< 0.3 µM,< 0.3 µM,
"CCCS(=O)(=O)Nc1ccc(C)c(Nc2ccc3ncc(N4CCOCC4)nc3c2C#N)c1 [compound 39, N-(3-(5-cyano-3-morpholinoquinoxalin-6-ylamino)-4-methylphenyl)propane-1-sulfonamide]",0.3 to 1 µM,1 to 10 µM,0.3 to 1 µM,> 10 µM,1 to 10 µM,1 to 10 µM,

# More lines, main results first:
IC50 (B-Raf^V600E kinase),IC50 (C-Raf kinase),IC50 (B-Raf kinase),SMILES,IC50 ([1]; given as bound),IC50 [2],IC50 [3],IC50 ([1]; given as class symbol)
< 0.3 µM,< 0.3 µM,< 0.3 µM,"CCCS(=O)(=O)Nc1ccc(F)c(Nc2ccc3ncc(OC)nc3c2C=O)c1F [compound 29, N-(2,4-difluoro-3-(5-formyl-3-methoxyquinoxalin-6-ylamino)phenyl)propane-1-sulfonamide]",> 10 µM,< 0.3 µM,< 0.3 µM,
0.3 to 1 µM,0.3 to 1 µM,0.3 to 1 µM,"CCCS(=O)(=O)Nc1ccc(F)c(Nc2ccc3ncc(OC)nc3c2C(=O)O)c1F [compound 30, 6-(2,6-difluoro-3-(propylsulfonamido)phenylamino)-3-methoxyquinoxaline-5-carboxylic acid]",> 10 µM,1 to 10 µM,1 to 10 µM,
< 0.3 µM,< 0.3 µM,< 0.3 µM,"CCCS(=O)(=O)Nc1ccc(F)c(Nc2ccc3ncc(OC)nc3c2C(=O)OC)c1F [compound 31, methyl 6-(2,6-difluoro-3-(propylsulfonamido)phenylamino)-3-methoxyquinoxaline-5-carboxylate]",> 10 µM,0.3 to 1 µM,0.3 to 1 µM,
< 0.3 µM,< 0.3 µM,< 0.3 µM,"CCOc1cnc2ccc(Nc3c(F)ccc(NS(=O)(=O)CCCF)c3F)c(C#N)c2n1 [compound 34, N-(3-(5-cyano-3-ethoxyquinoxalin-6-ylamino)-2,4-difluorophenyl)-3-fluoropropane-1-sulfonamide]",> 10 µM,< 0.3 µM,< 0.3 µM,
0.3 to 1 µM,0.3 to 1 µM,0.3 to 1 µM,"CCCS(=O)(=O)Nc1ccc(C)c(Nc2ccc3ncc(OC)nc3c2C#N)c1 [compound 40, N-(3-(5-cyano-3-methoxyquinoxalin-6-ylamino)-4-methylphenyl)propane-1-sulfonamide]",> 10 µM,1 to 10 µM,1 to 10 µM,
1 to 10 µM,1 to 10 µM,1 to 10 µM,"COc1cnc2ccc(Nc3cc(NS(C)(=O)=O)ccc3F)c(C#N)c2n1 [compound 41, N-(3-(5-cyano-3-methoxyquinoxalin-6-ylamino)-4-fluorophenyl)methanesulfonamide]",> 10 µM,1 to 10 µM,1 to 10 µM,
< 0.3 µM,< 0.3 µM,< 0.3 µM,"CCCS(=O)(=O)N(CC)c1ccc(F)c(Nc2ccc3ncc(OC)nc3c2C#N)c1F [compound 42, N-(3-(5-cyano-3-methoxyquinoxalin-6-ylamino)-2,4-difluorophenyl)-N-ethylpropane-1-sulfonamide]",> 10 µM,< 0.3 µM,< 0.3 µM,
< 0.3 µM,< 0.3 µM,< 0.3 µM,"CCCS(=O)(=O)N(C)c1ccc(F)c(Nc2ccc3ncc(OC)nc3c2C#N)c1F [compound 43, N-(3-(5-cyano-3-methoxyquinoxalin-6-ylamino)-2,4-difluorophenyl)-N-methylpropane-1-sulfonamide]",> 10 µM,< 0.3 µM,< 0.3 µM,
0.3 to 1 µM,< 0.3 µM,< 0.3 µM,"CCCS(=O)(=O)Nc1cccc(Nc2ccc3ncc(OC)nc3c2C#N)c1C [compound 44, N-(3-(5-cyano-3-methoxyquinoxalin-6-ylamino)-2-methylphenyl)propane-1-sulfonamide]",> 10 µM,0.3 to 1 µM,0.3 to 1 µM,
